In PubChem BioAssay AID248 (DTP/NCI, 2004):
“And” between values parts separate entries of the source, which are not always exact repeats. Identical values can stand only once. Inconclusive results and toxic doses are left out. Rule as the data show it: active = T/C of 150% or more; inactive = T/C below 125%.

Test system: L1210 leukemia ip in BDF1 mice, survival T/C
Assay: NCI In Vivo Anticancer Drug Screen. Data for tumor model L1210 Leukemia (intraperitoneal) in B6D2F1 (BDF1) mice
Settings: endpoint: mean survival time, higher = longer survival
In short: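 Tumor cells were implanted, animals were treated, and survival was followed. The result divides the treated measurement by the vehicle-control measurement.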

[1] = dose: 100.0 mg/kg/injection, schedule: Q01DX001 (ip), vehicle: saline

Measured: T/C

O=C(Nc1ccc(C2=NCCN2)cc1)c1cccc(C(=O)Nc2ccc(C3=NCCN3)cc2)c1
inactive: dose: 1.0 mg/kg/injection, schedule: Q#A X Z (ip), vehicle: methylcellulose (MC) 114 % of control | dose: 1.4 mg/kg/injection, schedule: Q01DX Z (ip), vehicle: methylcellulose (MC) 104 % of control | dose: 1.88 mg/kg/injection, schedule: Q01DX Z (ip), vehicle: saline 113 % of control | dose: 2.0 mg/kg/injection, schedule: Q01DX Z (ip), vehicle: methylcellulose (MC) 117 % of control | dose: 2.5 mg/kg/injection, schedule: Q01DX Z (iv), vehicle: other 94 % of control and 100 % of control | dose: 5.0 mg/kg/injection, schedule: Q01DX Z (iv), vehicle: other 94 % of control | dose: 6.0 mg/kg/injection, schedule: Q03DX Z (ip), vehicle: methylcellulose (MC) 109 % of control | dose: 8.0 mg/kg/injection, schedule: Q01DX004 (im), vehicle: olive oil, sesame oil, peanut oil 97 % of control | dose: 10.0 mg/kg/injection, schedule: Q01DX Z (iv), vehicle: other 97 % of control and 100 % of control | dose: 16.0 mg/kg/injection, schedule: Q01DX004 (im), vehicle: olive oil, sesame oil, peanut oil 100 % of control | dose: 32.0 mg/kg/injection, schedule: Q01DX004 (im), vehicle: olive oil, sesame oil, peanut oil 97 % of control | dose: 60.0 mg/kg/injection, schedule: Q01DX Z (ip), vehicle: methylcellulose (MC) 106 % of control | dose: 60.0 mg/kg/injection, schedule: Q01DX Z (oral), vehicle: methylcellulose (MC) 114 % of control | dose: 64.0 mg/kg/injection, schedule: Q01DX004 (im), vehicle: olive oil, sesame oil, peanut oil 114 % of control | dose: 120.0 mg/kg/injection, schedule: Q01DX Z (ip), vehicle: methylcellulose (MC) 89 % of control | dose: 120.0 mg/kg/injection, schedule: Q01DX Z (oral), vehicle: methylcellulose (MC) 91 % of control | dose: 240.0 mg/kg/injection, schedule: Q01DX Z (oral), vehicle: methylcellulose (MC) 97 % of control | dose: 480.0 mg/kg/injection, schedule: Q01DX Z (oral), vehicle: methylcellulose (MC) 89 % of control
active: dose: 4.0 mg/kg/injection, schedule: Q#A X Z (ip), vehicle: methylcellulose (MC) 158 % of control | dose: 6.6 mg/kg/injection, schedule: Q01DX015 (ip), vehicle: carboxymethylcellulose (CMC) 236 % of control | dose: 7.5 mg/kg/injection, schedule: Q01DX009 (ip), vehicle: saline 171 % of control | dose: 7.5 mg/kg/injection, schedule: Q01DX Z (ip), vehicle: methylcellulose (MC) 168 % of control | dose: 8.0 mg/kg/injection, schedule: Q01DX Z (ip), vehicle: methylcellulose (MC) 164 % of control | dose: 8.0 mg/kg/injection, schedule: Q#A X Z (ip), vehicle: methylcellulose (MC) 273 % of control | dose: 9.9 mg/kg/injection, schedule: Q01DX015 (ip), vehicle: carboxymethylcellulose (CMC) 261 % of control | dose: 15.0 mg/kg/injection, schedule: Q01DX009 (ip), vehicle: saline 173 % of control and 206 % of control | dose: 15.0 mg/kg/injection, schedule: Q01DX015 (ip), vehicle: carboxymethylcellulose (CMC) 309 % of control | dose: 15.0 mg/kg/injection, schedule: Q01DX Z (ip), vehicle: carboxymethylcellulose (CMC) 212 % of control | dose: 15.0 mg/kg/injection, schedule: Q01DX Z (ip), vehicle: methylcellulose (MC) 255 % of control and 369 % of control | dose: 15.0 mg/kg/injection, schedule: Q01DX Z (ip), vehicle: saline 214 % of control and 264 % of control | dose: 16.0 mg/kg/injection, schedule: Q01DX010 (ip), vehicle: saline 169 % of control | dose: 16.0 mg/kg/injection, schedule: Q01DX Z (ip), vehicle: methylcellulose (MC) 331 % of control | dose: 16.0 mg/kg/injection, schedule: Q#A X Z (ip), vehicle: methylcellulose (MC) 350 % of control | dose: 22.5 mg/kg/injection, schedule: Q01DX015 (ip), vehicle: carboxymethylcellulose (CMC) 341 % of control | dose: 24.0 mg/kg/injection, schedule: Q03DX Z (ip), vehicle: methylcellulose (MC) 167 % of control | dose: 30.0 mg/kg/injection, schedule: Q01DX009 (ip), vehicle: saline 184 % of control and 240 % of control | dose: 30.0 mg/kg/injection, schedule: Q01DX Z (ip), vehicle: carboxymethylcellulose (CMC) 367 % of control | dose: 30.0 mg/kg/injection, schedule: Q01DX Z (ip), vehicle: saline 329 % of control | dose: 32.0 mg/kg/injection, schedule: Q01DX010 (ip), vehicle: saline 241 % of control | dose: 32.0 mg/kg/injection, schedule: Q01DX Z (ip), vehicle: methylcellulose (MC) 347 % of control | dose: 32.0 mg/kg/injection, schedule: Q01DX Z (sc), vehicle: methylcellulose (MC) 205 % of control | dose: 32.0 mg/kg/injection, schedule: Q#A X Z (ip), vehicle: methylcellulose (MC) 193 % of control | dose: 33.75 mg/kg/injection, schedule: Q01DX015 (ip), vehicle: carboxymethylcellulose (CMC) 316 % of control | dose: 48.0 mg/kg/injection, schedule: Q03DX Z (ip), vehicle: methylcellulose (MC) 267 % of control | dose: 56.0 mg/kg/injection, schedule: Q07DX Z (ip), vehicle: methylcellulose (MC) 166 % of control | dose: 60.0 mg/kg/injection, schedule: Q01DX009 (ip), vehicle: saline 194 % of control and 228 % of control | dose: 60.0 mg/kg/injection, schedule: Q01DX Z (ip), vehicle: carboxymethylcellulose (CMC) 255 % of control | dose: 60.0 mg/kg/injection, schedule: Q01DX Z (ip), vehicle: saline 280 % of control | dose: 64.0 mg/kg/injection, schedule: Q01DX010 (ip), vehicle: saline 276 % of control | dose: 64.0 mg/kg/injection, schedule: Q01DX Z (sc), vehicle: methylcellulose (MC) 317 % of control | dose: 96.0 mg/kg/injection, schedule: Q03DX Z (ip), vehicle: methylcellulose (MC) 352 % of control | dose: 100.0 mg/kg/injection, schedule: Q01DX001 (ip), vehicle: water 156 % of control | dose: 112.0 mg/kg/injection, schedule: Q07DX Z (ip), vehicle: methylcellulose (MC) 243 % of control | dose: 120.0 mg/kg/injection, schedule: Q01DX009 (ip), vehicle: saline 334 % of control | dose: 120.0 mg/kg/injection, schedule: Q01DX Z (ip), vehicle: saline 211 % of control | dose: 128.0 mg/kg/injection, schedule: Q01DX Z (sc), vehicle: methylcellulose (MC) 338 % of control | dose: 192.0 mg/kg/injection, schedule: Q03DX Z (ip), vehicle: methylcellulose (MC) 189 % of control | dose: 200.0 mg/kg/injection, schedule: Q01DX001 (ip), vehicle: water 194 % of control | dose: 256.0 mg/kg/injection, schedule: Q01DX Z (sc), vehicle: methylcellulose (MC) 341 % of control | dose: 300.0 mg/kg/injection, schedule: Q01DX001 (ip), vehicle: water 247 % of control
119 % of control and 329 % of control: dose: 30.0 mg/kg/injection, schedule: Q01DX Z (ip), vehicle: methylcellulose (MC)

O=NN(CCCN(N=O)C(=O)Nc1c[nH]c(=O)[nH]c1=O)C(=O)Nc1c[nH]c(=O)[nH]c1=O
inactive: dose: 50.0 mg/kg/injection, schedule: Q01DX Z (ip), vehicle: carboxymethylcellulose (CMC) 110 % of control | dose: 75.0 mg/kg/injection, schedule: Q01DX Z (ip), vehicle: carboxymethylcellulose (CMC) 110 % of control | dose: 100.0 mg/kg/injection, schedule: Q01DX Z (ip), vehicle: carboxymethylcellulose (CMC) 115 % of control | dose: 150.0 mg/kg/injection, schedule: Q01DX Z (ip), vehicle: carboxymethylcellulose (CMC) 111 % of control | dose: 200.0 mg/kg/injection, schedule: Q01DX Z (ip), vehicle: carboxymethylcellulose (CMC) 119 % of control

c1ccc(CCCn2cnc3cnccc32)cc1
inactive: dose: 5.0 mg/kg/injection, schedule: Q01DX001 (ip), vehicle: saline 100 % of control | dose: 10.0 mg/kg/injection, schedule: Q01DX001 (ip), vehicle: saline 103 % of control | dose: 20.0 mg/kg/injection, schedule: Q01DX001 (ip), vehicle: saline 105 % of control | dose: 40.0 mg/kg/injection, schedule: Q01DX001 (ip), vehicle: saline 100 % of control | [1] 96 % of control

N=C(N)Cc1ccc(CCc2ccc(CC(=N)N)cc2)cc1
inactive: dose: 12.5 mg/kg/injection, schedule: Q01DX Z (oral), vehicle: saline 97 % of control | dose: 25.0 mg/kg/injection, schedule: Q01DX Z (oral), vehicle: saline 100 % of control | dose: 50.0 mg/kg/injection, schedule: Q01DX Z (oral), vehicle: saline 97 % of control | dose: 100.0 mg/kg/injection, schedule: Q01DX Z (oral), vehicle: saline 100 % of control

CCCCNC(=O)c1ccc(C)c(OCc2ccccc2)c1[N+](=O)[O-]
inactive: [1] 108 % of control | dose: 200.0 mg/kg/injection, schedule: Q01DX001 (ip), vehicle: saline 87 % of control | dose: 400.0 mg/kg/injection, schedule: Q01DX001 (ip), vehicle: saline 90 % of control
